Assay: RiboGreen assay of siRNA encapsulation efficiency, in vivo formulations of Lipid-Based Particles
Format: physicochemical
Details: lipid:siRNA 25:1
How it was run: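 RiboGreen fluorescence (480/520 nm) quantifies siRNA before and after release from particles with ethanol, Triton X-100 or phenol/chloroform. Particles formed by ethanol-injection of lipid into pH 4.0 citrate buffer containing siRNA at 65 °C, diluted in PBS pH 7.4, diafiltered (100K) and sterile-filtered.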

% Encapsulation Efficiency (in vivo formulation A: Cationic lipid/Example 73/DSPC/Chol 45/10/15/30 wt %): 96.6% | % Encapsulation Efficiency (in vivo formulation B: Cationic lipid/PEG-cholesterol/DSPC/Chol 45/10/15/30 wt %): 89.3% | % Encapsulation Efficiency (in vivo formulation C: Cationic lipid/Pal-PEG-Cera/DSPC/Chol 45/10/15/30 wt %): 97.8% | % Encapsulation Efficiency (in vivo formulation D: Cationic lipid/Example 66/DSPC/Chol 45/10/15/30 wt %): 97.0% | % Encapsulation Efficiency (in vivo formulation E: Cationic lipid/Example 53/DSPC/Chol 45/10/15/30 wt %): 79.3% | % Encapsulation Efficiency (in vivo formulation F: Cationic lipid/Example 54/DSPC/Chol 45/10/15/30 wt %): 96.1% | % Encapsulation Efficiency (in vivo formulation G: Cationic lipid/Example 55/DSPC/Chol 45/10/15/30 wt %): 96.7% | % Encapsulation Efficiency (in vivo formulation H: Cationic lipid/PEG-DMPE/DSPC/Chol 45/10/15/30 wt %): 97.3% | % Encapsulation Efficiency (in vivo formulation I: Cationic lipid/PEG-DPPE/DSPC/Chol 45/10/15/30 wt %): 92% | % Encapsulation Efficiency (in vivo formulation J: Cationic lipid/PEG-DSPE/DSPC/Chol 45/10/15/30 wt %): 100% | % Encapsulation Efficiency (in vivo formulation K: Cationic lipid/PEG-DMG/DSPC/Chol 45/10/15/30 wt %): 99.5% | % Encapsulation Efficiency (in vivo formulation L: Cationic lipid/PEG-DPG/DSPC/Chol 45/10/15/30 wt %): 90% | % Encapsulation Efficiency (in vivo formulation M: Cationic lipid/PEG-DSG/DSPC/Chol 45/10/15/30 wt %): 100% | % Encapsulation Efficiency (in vivo formulation NN: Cationic lipid/Example 74/DSPC/Chol 45/10/15/30 wt %): 97.3% | % Encapsulation Efficiency (in vivo formulation OO: Cationic lipid/Example 75/DSPC/Chol 45/10/15/30 wt %): 99.5% | % Encapsulation Efficiency (in vivo formulation P: Cationic lipid/PEG-DSPE/DOPE/Chol 45/10/15/30 wt %): 97% | % Encapsulation Efficiency (in vivo formulation PP: Cationic lipid/Example 73/Chol 45/10/45 wt %): 97.4% | % Encapsulation Efficiency (in vivo formulation Q: Cationic lipid/PEG-DSPE/DOPC/Chol 45/10/15/30 wt %): 97% | % Encapsulation Efficiency (in vivo formulation R: Cationic lipid/PEG-DSPE/SPC/Chol 45/10/15/30 wt %): 97%
SMILES: CCCCC/C=C\C/C=C\CCCCCCCCOCC(CCN1CCCC1)OCCCCCCCC/C=C\C/C=C\CCCCC (stereo not shown) [Example 24, 1-{3,4-bis[(9Z,12Z)-octadeca-9,12-dienyloxy]butyl}pyrrolidine]

— patent US20100055169A1, “CATIONIC LIPIDS AND USES THEREOF” (ABBOTT LABORATORIES, priority 2008, published 2010)
